Data published in patent publication US10597368B2, “Syringolin analogues and methods of making and using same” (BROWN UNIVERSITY, priority 2015, dated 2020).

Target: T1, human 20S proteasome (hs20S), chymotrypsin-like β5-subunits (Homo sapiens, UniProt P20618+P28074)
T1 construct: purchased R&D
Assay: In vitro 20S peptidase inhibition kinetics, chymotrypsin-like activity (Suc-LLVY-AMC)
Type: biochemical
Settings: second-order rate constant, Suc-LLVY-AMC substrate, 37° C.
Method: In vitro 20S peptidase inhibition assays were recorded in a 384-well plate at a SpectraMax M5 (Molecular devises) plate-reader. Therefore, 5 nM human 20S (R&D) was incubated in buffer R (50 mM HEPES-KOH, pH 7.5, 0.5 mM EDTA) with 100 μM of the fluorogenic peptide substrates Suc-LLVY-AMC or Boc-LRR-AMC. Reactions were started by adding various amounts of inhibitors (5 nM to 500 μM) to a final volume of 30 μL and peptide hydrolysis was continuously monitored for 90 min by changes in fluorescence (excitation 380 nm; emission 440 nm) at 37° C. The kobs values were determined by fitting the raw data to equation (1). The slopes of the plots of kobsversus I gave an apparent value of kobs/I, also referred to as kinact/Ki for an irreversible inhibitor, which was then corrected by equation (2) to compensate for the effect of substrate competition, where app is the apparent value at different inhibitor concentrations.
Using purified human 20S proteasome (hs20S) and a fluorogenic substrate (Suc-LLVY-AMC), in vitro assays were performed to systematically assess proteasome inhibition by the syringolin analogues. The choice of substrate was based on the fact that it is preferentially acted upon by the chymotrypsin-like β5-subunits of the proteasome due to the aromatic tyrosine residue at the scissile bond (i.e., P1 position).
From measurements of the rates of hydrolysis of the fluorogenic substrate by the proteasome in the presence of increasing concentrations of each inhibitor, second-order rate constants kin/Ki (M^−1 s^−1) were determined (Table 1), which reflect both the affinity of the non-covalent binding (Ki) and the rate of the chemical reaction with the enzyme (kin). All of the syringolin analogues were capable in inhibiting the chymotrypsin-like activity of hs20S. Without wishing to be limited by any theory, consistent with the design predictions, the most significant contributor to the apparent second-order rate constants of the compounds was their binding affinity (Ki) rather than the rates of inhibition.
In vitro 20S peptidase inhibition assays were recorded in a 384-well plate at a SpectraMax M5 (Molecular Devices) plate-reader. Therefore, 5 nM human 20S (R&D) was incubated in buffer R (50 mM HEPEs-KOH, pH 7.5, 0.5 mM EDTA) with 100 μM of the fluorogenic peptide substrate Suc-LLVY-AMC. Reactions were started by adding various amounts of inhibitors 5 nM to 500 μM) to a final volume of 30 μL and peptide hydrolysis was continuously monitored for 90 minutes by changes in fluorescence (excitation 380 nm; emission 440 nm) at 37 degrees Celsius. The kobs values were determined by fitting the raw data to equation 1. The slopes of the plots of kobs versus I gave an apparent value of kob/I, also referred to as kinact/Ki for an irreversible inhibitor, which was then corrected by equation 2 to compensate for the effect of substrate competition, where app is the apparent value at different inhibitor concentrations.

| SMILES | hs20S kin/Ki |
| --- | --- |
| COC(=O)[C@@H](NC(=O)N[C@@H](Cc1ccccc1Cl)C(=O)N[C@H]1CCCCNC(=O)/C=C/[C@H](Cc2ccccc2F)NC1=O)C(C)C [Compound 17, (S)-methyl 2-(3-((S)-3-(2-chlorophenyl)-1-((5S,8S,E)-5-(2-fluorobenzyl)-2,7-dioxo-1,6-diazacyclododec-3-en-8-ylamino)-1-oxopropan-2-yl)ureido)-3-methylbutanoate] | 7271 M⁻¹ s⁻¹ |
| COC(=O)[C@@H](NC(=O)N[C@@H](Cc1cccc(C)c1)C(=O)N[C@H]1CCCCNC(=O)/C=C/[C@H](Cc2cccc(F)c2)NC1=O)C(C)C [Compound 28, (S)-methyl 2-(3-((S)-1-((5S,8S,E)-S-(3 fluorobenzyl)-2,7-dioxo-1,6-diazacyclododec-3-en-8-ylamino)-1-oxo-3-m-tolylpropan-2-yl)ureido)-3-methylbutanoate] | 12866 M⁻¹ s⁻¹ |
| COC(=O)[C@@H](NC(=O)N[C@@H](Cc1ccc(C)cc1)C(=O)N[C@H]1CCCCNC(=O)/C=C/[C@H](Cc2ccccc2F)NC1=O)C(C)C [Compound 21, (S)-methyl 2-(3-((S)-1-((5S,8S,E)-5-(2-fluorobenzyl)-2,7-dioxo-1,6-diazacyclododec-3-en-8-ylamino)-1-oxo-3-p-tolylpropan-2-yl)ureido)-3-methylbutanoate] | 7332 M⁻¹ s⁻¹ |
| COC(=O)[C@@H](NC(=O)N[C@H](C(=O)N[C@H]1CCCCNC(=O)/C=C/[C@H](Cc2cccc(F)c2)NC1=O)C(C)C)C(C)C [Compound 6, (S)-methyl 2-(3-((S)-1-(((5S,8S,E)-5-(3-fluorobenzyl)-2,7-dioxo-1,6-diazacyclododec-3-en-8-yl)amino)-3-methyl-1-oxobutan-2-yl)ureido)-3-methylbutanoate] | 2,471 M^−1s^−1 |
| COC(=O)[C@@H](NC(=O)N[C@@H](Cc1ccccc1)C(=O)N[C@H]1CCCCNC(=O)/C=C/[C@H](Cc2cccc(F)c2)NC1=O)C(C)C [Compound 27] | 14336 M⁻¹ s⁻¹ |
| COC(=O)[C@@H](NC(=O)N[C@@H](Cc1cccc(C(F)(F)F)c1)C(=O)N[C@H]1CCCCNC(=O)/C=C/[C@H](Cc2cccc(F)c2)NC1=O)C(C)C [Compound 32, (S)-methyl 2-(3-((S)-1-((5S,8S,E)-5-(3-fluorobenzyl)-2,7-dioxo-1,6-diazacyclododec-3-en-8-ylamino)-1-oxo-3-(3-(trifluoromethyl)phenyl)propan-2-yl)ureido)-3-methylbutanoate] | 4531 M⁻¹ s⁻¹ |
| COC(=O)[C@@H](NC(=O)N[C@@H](Cc1cccc(F)c1)C(=O)N[C@H]1CCCCNC(=O)/C=C/[C@H](Cc2ccccc2F)NC1=O)C(C)C [Compound 23, (S)-methyl 2-(3-((S)-1-((5S,8S,E)-5-(2-fluorobenzyl)-2,7-dioxo-1,6-diazacyclododec-3-en-8-ylamino)-3-(3-fluorophenyl)-1-oxopropan-2-yl)ureido)-3-methylbutanoate] | 2199 M⁻¹ s⁻¹ |
| COC(=O)[C@@H](NC(=O)N[C@@H](Cc1cccc(Cl)c1)C(=O)N[C@H]1CCCCNC(=O)/C=C/[C@H](Cc2cccc(F)c2)NC1=O)C(C)C [Compound 25, (S)-methyl 2-(3-((S)-3-(3-chlorophenyl)-1-((5S,8S,E)-5-(3-fluorobenzyl)-2,7-dioxo-1,6-diazacyclododec-3-en-8-ylamino)-1-oxopropan-2-yl)ureido)-3-methylbutanoate] | 8532 M⁻¹ s⁻¹ |
| COC(=O)[C@@H](NC(=O)N[C@@H](Cc1cccc(F)c1)C(=O)N[C@H]1CCCCNC(=O)/C=C/[C@H](Cc2cccc(F)c2)NC1=O)C(C)C [Compound 31, (S)-methyl 2-(3-((S)-1-((5S,8S,E)-5-(3-fluorobenzyl)-2,7-dioxo-1,6-diazacyclododec-3-en-8-ylamino)-3-(3-fluorophenyl)-1-oxopropan-2-yl)ureido)-3-methylbutanoate] | 5016 M⁻¹ s⁻¹ |
| COC(=O)[C@@H](NC(=O)N[C@@H](Cc1cccc(C)c1)C(=O)N[C@H]1CCCCNC(=O)/C=C/[C@H](Cc2ccccc2F)NC1=O)C(C)C [Compound 20, (S)-methyl 2-(3-((S)-1-((5S,8S,E)-5-(2-fluorobenzyl)-2,7-dioxo-1,6-diazacyclododec-3-en-8-ylamino)-1-oxo-3-m-tolylpropan-2-yl)ureido)-3-methylbutanoate] | 3797 M⁻¹ s⁻¹ |
| COC(=O)[C@@H](NC(=O)N[C@@H](Cc1ccc(C)cc1)C(=O)N[C@H]1CCCCNC(=O)/C=C/[C@H](Cc2cccc(F)c2)NC1=O)C(C)C [Compound 29, (S)-methyl 2-(3-((S)-1-((5S,8S,E)-S-(3-fluorobenzyl)-2,7-dioxo-1,6-diazacyclododec-3-en-8-ylamino)-1-oxo-3-p-tolylpropan-2 yl)ureido)-3-methylbutanoate] | 11670 M⁻¹ s⁻¹ |
| COC(=O)[C@@H](NC(=O)N[C@H](C(=O)N[C@H]1CCCCNC(=O)/C=C/[C@H](Cc2cc(F)cc(F)c2)NC1=O)C(C)C)C(C)C [Compound 7, (S)-methyl 2-(3-((S)-1-(((5S,8S,E)-5-(3,5-difluorobenzyl)-2,7-dioxo-1,6-diazacyclododec-3-en-8-yl)amino)-3-methyl-1-oxobutan-2-yl)ureido)-3-methylbutanoate] | 1,579 M^−1s^−1 |
| COC(=O)[C@@H](NC(=O)N[C@@H](Cc1ccc(Cl)cc1)C(=O)N[C@H]1CCCCNC(=O)/C=C/[C@H](Cc2cccc(F)c2)NC1=O)C(C)C [Compound 26, (S)-methyl 2-(3-((S)-3-(4-chlorophenyl)-1-((5S,8S,E)-5-(3-fluorobenzyl)-2,7-dioxo-1,6-diazacyclododec-3-en-8-ylamino)-1-oxopropan-2-yl)ureido)-3-methylbutanoate] | 12605 M⁻¹ s⁻¹ |
| COC(=O)[C@@H](NC(=O)N[C@@H](Cc1ccccc1)C(=O)N[C@H]1CCCCNC(=O)/C=C/[C@H](Cc2ccccc2F)NC1=O)C(C)C [Compound 19, (S)-methyl 2-(3-((S)-1-((5S,8S,E)-5-(2-fluorobenzyl)-2,7-dioxo-1,6-diazacyclododec-3-en-8-ylamino)-1-oxo-3-phenylpropan-2-yl)ureido)-3-methylbutanoate] | 5877 M⁻¹ s⁻¹ |
| COC(=O)[C@@H](NC(=O)N[C@@H](Cc1cccc(Cl)c1)C(=O)N[C@H]1CCCCNC(=O)/C=C/[C@H](Cc2ccccc2F)NC1=O)C(C)C [Compound 18, (S)-methyl 2-(3-((S)-3-(3-chlorophenyl)-1-((5S,8S,E)-5-(2-fluorobenzyl)-2,7-dioxo-1,6-diazacyclododec-3-en-8-ylamino)-1-oxopropan-2-yl)ureido)-3-methylbutanoate] | 4656 M⁻¹ s⁻¹ |
| COC(=O)[C@@H](NC(=O)N[C@@H](Cc1ccccc1Cl)C(=O)N[C@H]1CCCCNC(=O)/C=C/[C@H](Cc2cccc(F)c2)NC1=O)C(C)C [Compound 24, (S)-methyl 2-(3-((S)-3-(2-chlorophenyl)-1-((5S,8S,E)-5-(3-fluorobenzyl)-2,7-dioxo-1,6-diazacyclododec-3-en-8-ylamino)-1-oxopropan-2-yl)ureido)-3-methylbutanoate] | 2749 M⁻¹ s⁻¹ |
| COC(=O)[C@@H](NC(=O)N[C@@H](Cc1ccccc1F)C(=O)N[C@H]1CCCCNC(=O)/C=C/[C@H](Cc2cccc(F)c2)NC1=O)C(C)C [Compound 30, (S)-methyl 2-(3-((S)-1-((5S,8S,E)-S-(3-fluorobenzyl)-2,7-dioxo-1,6-diazacyclododec-3-en-8-ylamino)-3-(2-fluorophenyl)-1-oxopropan-2 yl)ureido)-3-methylbutanoate] | 12202 M⁻¹ s⁻¹ |
